Experimental data taken from PMC10004634 (PLOS ONE, 2023).
Like-named read-outs stand apart in the source and are kept apart here.

Assays:
Experiment in all cases: biochemical
Set-up in all cases: KINOMEscan scanMAX competition binding, DNA-tagged kinases, qPCR read-out, percent control at 300 nM
[1] = molecular target: T1, ABL1(H396P)-phosphorylated (Homo sapiens, UniProt P00519, H396P)
T1 construct: phosphorylated

BIKE = molecular target: T2, BIKE (Homo sapiens, UniProt Q9NSY1)
T2 construct: gene BMP2K

CLK2 = CLK2 (Homo sapiens, UniProt P49760)
CSNK1G3 = CSNK1G3 (Homo sapiens, UniProt Q9Y6M4)
GRK4 = GRK4 (Homo sapiens, UniProt P32298)
KIT(D816V) = KIT(D816V) (Homo sapiens, UniProt P10721, D816V)
MEK1 = molecular target: T3, MEK1 (Homo sapiens, UniProt Q02750)
T3 construct: gene MAP2K1

PIK3CA(Q546K) = PIK3CA(Q546K) (Homo sapiens, UniProt P42336, Q546K)
PKN1 = PKN1 (Homo sapiens, UniProt Q16512)
PLK3 = PLK3 (Homo sapiens, UniProt Q9H4B4)
RIPK4 = molecular target: T4, RIPK4 (Homo sapiens, UniProt P57078)
T4 sequence (P57078 1-832): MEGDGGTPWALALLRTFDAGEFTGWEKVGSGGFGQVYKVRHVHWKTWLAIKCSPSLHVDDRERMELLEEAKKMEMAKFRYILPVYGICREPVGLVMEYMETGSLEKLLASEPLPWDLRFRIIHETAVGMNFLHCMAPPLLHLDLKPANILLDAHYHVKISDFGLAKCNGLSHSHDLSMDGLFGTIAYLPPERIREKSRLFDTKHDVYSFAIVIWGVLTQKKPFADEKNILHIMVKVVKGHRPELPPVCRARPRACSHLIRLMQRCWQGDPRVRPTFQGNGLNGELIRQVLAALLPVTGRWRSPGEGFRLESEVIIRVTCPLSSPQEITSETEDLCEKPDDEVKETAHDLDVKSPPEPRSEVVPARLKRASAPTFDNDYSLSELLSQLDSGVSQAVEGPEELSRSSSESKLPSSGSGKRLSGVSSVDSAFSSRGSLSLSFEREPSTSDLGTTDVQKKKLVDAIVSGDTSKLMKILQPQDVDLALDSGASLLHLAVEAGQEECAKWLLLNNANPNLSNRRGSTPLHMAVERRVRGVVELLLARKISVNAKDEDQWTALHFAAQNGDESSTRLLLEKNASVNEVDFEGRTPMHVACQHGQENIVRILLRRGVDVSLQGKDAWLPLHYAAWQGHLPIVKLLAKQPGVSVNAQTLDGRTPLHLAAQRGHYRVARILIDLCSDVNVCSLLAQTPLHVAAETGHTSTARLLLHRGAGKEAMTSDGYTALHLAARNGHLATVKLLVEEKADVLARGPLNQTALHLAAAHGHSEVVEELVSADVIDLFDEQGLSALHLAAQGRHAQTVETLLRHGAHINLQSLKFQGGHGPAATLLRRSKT

ROCK2 = ROCK2 (Homo sapiens, UniProt O75116)
TRKB = molecular target: T5, TRKB (Homo sapiens, UniProt Q16620)
T5 construct: gene NTRK2

[2] = read-out: Percent control / Acalabrutinib
[3] = read-out: Percent control / Ibrutinib
[4] = read-out: Percent control / Tirabrutinib
[5] = read-out: Percent control / Zanubrutinib

T5 sequence (Q16620 whole entry): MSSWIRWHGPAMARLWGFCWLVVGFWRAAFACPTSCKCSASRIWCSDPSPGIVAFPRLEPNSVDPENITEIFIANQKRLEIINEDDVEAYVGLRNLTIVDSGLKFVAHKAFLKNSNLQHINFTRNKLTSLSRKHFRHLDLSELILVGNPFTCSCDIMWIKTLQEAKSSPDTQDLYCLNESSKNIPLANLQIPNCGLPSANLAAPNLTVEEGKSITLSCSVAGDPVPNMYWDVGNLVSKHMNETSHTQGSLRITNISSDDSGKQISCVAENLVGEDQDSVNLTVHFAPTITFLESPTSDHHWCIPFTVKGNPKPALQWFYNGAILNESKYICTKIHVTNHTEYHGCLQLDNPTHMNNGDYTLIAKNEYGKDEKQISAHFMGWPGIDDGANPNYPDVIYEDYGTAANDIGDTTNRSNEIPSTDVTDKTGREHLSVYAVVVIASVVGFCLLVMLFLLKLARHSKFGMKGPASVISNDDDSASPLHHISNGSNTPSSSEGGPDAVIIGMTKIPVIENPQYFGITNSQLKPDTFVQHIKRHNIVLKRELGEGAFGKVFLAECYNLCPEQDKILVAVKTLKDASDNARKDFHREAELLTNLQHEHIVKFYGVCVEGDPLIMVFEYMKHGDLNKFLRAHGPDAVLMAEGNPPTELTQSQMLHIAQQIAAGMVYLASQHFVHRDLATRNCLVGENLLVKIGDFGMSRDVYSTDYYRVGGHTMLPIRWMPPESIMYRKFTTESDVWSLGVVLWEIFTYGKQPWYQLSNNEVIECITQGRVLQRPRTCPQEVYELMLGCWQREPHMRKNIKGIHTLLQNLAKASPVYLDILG
PKN1, sequence (Q16512 whole entry): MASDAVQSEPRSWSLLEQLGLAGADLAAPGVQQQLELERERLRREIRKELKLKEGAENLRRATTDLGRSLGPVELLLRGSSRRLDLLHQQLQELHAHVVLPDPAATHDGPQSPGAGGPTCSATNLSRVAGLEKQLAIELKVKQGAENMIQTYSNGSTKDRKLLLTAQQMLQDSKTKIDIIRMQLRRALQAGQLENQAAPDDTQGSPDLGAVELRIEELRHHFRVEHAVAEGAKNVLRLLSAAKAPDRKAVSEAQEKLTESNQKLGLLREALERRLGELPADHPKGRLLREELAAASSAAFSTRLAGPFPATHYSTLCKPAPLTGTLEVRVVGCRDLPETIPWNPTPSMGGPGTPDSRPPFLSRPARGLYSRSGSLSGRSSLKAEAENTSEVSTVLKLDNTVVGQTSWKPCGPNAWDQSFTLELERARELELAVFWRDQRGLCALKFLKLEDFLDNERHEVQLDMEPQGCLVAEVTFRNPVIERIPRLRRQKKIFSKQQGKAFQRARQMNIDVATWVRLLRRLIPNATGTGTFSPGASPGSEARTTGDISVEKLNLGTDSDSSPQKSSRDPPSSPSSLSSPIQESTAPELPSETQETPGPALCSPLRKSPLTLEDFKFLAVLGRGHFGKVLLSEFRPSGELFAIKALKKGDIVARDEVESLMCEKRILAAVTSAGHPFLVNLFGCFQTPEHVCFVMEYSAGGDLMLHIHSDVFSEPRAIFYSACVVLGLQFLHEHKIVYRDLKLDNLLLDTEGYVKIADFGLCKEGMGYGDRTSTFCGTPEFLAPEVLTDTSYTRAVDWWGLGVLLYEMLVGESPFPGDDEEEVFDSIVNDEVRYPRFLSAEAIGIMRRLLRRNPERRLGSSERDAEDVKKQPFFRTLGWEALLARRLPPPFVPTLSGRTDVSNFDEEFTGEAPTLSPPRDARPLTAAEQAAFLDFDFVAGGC
KIT(D816V), sequence (P10721 whole entry D816V): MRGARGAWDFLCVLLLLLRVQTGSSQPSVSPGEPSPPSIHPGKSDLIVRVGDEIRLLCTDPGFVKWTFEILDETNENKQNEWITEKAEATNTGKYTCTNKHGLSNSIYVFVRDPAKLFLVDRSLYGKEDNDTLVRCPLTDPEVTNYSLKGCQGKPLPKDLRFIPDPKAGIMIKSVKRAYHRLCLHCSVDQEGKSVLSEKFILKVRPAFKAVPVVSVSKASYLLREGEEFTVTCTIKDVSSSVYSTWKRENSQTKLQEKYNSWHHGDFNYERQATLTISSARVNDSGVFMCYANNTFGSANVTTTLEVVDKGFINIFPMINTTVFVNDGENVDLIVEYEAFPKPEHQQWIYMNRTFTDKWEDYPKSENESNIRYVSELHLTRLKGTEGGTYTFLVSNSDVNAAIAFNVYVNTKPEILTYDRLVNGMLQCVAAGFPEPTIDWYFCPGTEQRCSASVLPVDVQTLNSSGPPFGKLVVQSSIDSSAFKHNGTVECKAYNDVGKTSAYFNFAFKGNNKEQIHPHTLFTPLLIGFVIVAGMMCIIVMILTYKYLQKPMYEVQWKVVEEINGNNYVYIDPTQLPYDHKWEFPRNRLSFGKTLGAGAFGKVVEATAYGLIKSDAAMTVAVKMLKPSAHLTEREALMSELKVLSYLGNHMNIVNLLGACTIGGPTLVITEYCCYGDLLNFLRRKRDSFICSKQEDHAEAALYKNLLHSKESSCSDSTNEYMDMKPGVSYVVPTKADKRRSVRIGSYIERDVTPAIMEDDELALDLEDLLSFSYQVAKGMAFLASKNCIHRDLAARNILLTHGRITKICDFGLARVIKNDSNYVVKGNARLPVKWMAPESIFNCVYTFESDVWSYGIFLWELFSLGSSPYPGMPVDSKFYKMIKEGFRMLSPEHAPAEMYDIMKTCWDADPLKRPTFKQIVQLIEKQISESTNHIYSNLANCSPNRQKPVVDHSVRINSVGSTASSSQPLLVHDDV
CSNK1G3, sequence (Q9Y6M4 whole entry): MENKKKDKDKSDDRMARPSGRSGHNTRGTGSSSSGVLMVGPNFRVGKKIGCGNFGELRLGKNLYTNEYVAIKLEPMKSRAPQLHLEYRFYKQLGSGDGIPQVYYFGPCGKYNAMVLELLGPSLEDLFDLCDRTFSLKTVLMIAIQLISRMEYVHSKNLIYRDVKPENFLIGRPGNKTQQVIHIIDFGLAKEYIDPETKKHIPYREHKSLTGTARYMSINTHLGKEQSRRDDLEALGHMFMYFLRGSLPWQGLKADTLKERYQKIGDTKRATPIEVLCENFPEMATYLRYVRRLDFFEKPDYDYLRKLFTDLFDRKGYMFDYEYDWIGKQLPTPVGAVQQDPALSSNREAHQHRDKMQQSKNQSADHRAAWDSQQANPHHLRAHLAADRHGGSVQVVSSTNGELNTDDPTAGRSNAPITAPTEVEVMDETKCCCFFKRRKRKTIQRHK
PIK3CA(Q546K), sequence (P42336 whole entry Q546K): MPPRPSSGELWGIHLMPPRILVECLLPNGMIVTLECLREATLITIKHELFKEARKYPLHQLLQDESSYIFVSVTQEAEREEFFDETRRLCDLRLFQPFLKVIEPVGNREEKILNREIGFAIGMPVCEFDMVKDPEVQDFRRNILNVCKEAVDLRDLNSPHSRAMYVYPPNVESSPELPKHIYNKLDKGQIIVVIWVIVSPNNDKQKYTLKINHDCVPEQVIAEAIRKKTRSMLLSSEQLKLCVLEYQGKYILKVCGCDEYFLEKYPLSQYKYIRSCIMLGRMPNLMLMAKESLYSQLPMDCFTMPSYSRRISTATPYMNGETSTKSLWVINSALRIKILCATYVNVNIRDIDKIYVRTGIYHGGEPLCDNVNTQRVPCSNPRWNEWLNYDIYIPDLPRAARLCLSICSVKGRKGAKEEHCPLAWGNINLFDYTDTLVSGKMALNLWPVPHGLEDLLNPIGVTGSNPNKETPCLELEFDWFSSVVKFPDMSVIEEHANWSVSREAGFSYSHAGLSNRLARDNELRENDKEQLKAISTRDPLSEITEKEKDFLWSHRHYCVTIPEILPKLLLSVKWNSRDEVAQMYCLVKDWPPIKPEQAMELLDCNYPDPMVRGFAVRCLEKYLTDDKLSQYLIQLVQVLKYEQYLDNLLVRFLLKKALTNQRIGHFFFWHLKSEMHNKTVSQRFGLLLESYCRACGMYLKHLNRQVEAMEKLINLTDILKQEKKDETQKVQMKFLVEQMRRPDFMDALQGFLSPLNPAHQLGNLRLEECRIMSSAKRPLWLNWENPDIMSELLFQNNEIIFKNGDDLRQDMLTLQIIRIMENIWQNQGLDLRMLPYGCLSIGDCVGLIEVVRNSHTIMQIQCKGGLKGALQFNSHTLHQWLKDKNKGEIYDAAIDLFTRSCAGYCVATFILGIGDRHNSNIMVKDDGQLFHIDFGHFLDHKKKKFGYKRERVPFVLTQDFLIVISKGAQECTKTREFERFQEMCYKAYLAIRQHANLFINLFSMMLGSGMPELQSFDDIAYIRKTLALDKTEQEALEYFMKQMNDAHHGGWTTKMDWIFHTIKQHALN
T3 sequence (Q02750 whole entry): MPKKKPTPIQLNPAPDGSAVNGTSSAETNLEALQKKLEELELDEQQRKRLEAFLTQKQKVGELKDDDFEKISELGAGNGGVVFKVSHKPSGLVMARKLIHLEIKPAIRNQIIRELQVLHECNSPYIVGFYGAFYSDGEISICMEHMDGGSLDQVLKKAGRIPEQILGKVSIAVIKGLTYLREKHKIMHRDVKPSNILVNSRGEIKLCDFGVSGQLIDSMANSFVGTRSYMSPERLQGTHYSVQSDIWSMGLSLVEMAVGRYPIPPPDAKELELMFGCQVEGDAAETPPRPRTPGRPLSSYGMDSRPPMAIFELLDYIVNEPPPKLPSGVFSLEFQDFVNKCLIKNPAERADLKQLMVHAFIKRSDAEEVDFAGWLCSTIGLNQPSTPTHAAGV

CC#CC(=O)N1CCC[C@H]1c1nc(-c2ccc(C(=O)Nc3ccccn3)cc2)c2c(N)nccn12 [Acalabrutinib]
remaining binding at 0.3 µM [1, 2]: 95% | remaining binding at 0.3 µM (BIKE; [2]): 94% | remaining binding at 0.3 µM (CLK2; [2]): 99% | remaining binding at 0.3 µM (CSNK1G3; [2]): 91% | remaining binding at 0.3 µM (GRK4; [2]): 89% | remaining binding at 0.3 µM (KIT(D816V); [2]): 92% | remaining binding at 0.3 µM (MEK1; [2]): 96% | remaining binding at 0.3 µM (PIK3CA(Q546K); [2]): 88% | remaining binding at 0.3 µM (PKN1; [2]): 81% | remaining binding at 0.3 µM (PLK3; [2]): 91% | remaining binding at 0.3 µM (RIPK4; [2]): 85% | remaining binding at 0.3 µM (ROCK2; [2]): 94%

C=CC(=O)N1CCC[C@@H](n2nc(-c3ccc(Oc4ccccc4)cc3)c3c(N)ncnc32)C1 [Ibrutinib]
remaining binding at 0.3 µM (BIKE; [3]): 66% | remaining binding at 0.3 µM (MEK1; [3]): 91% | remaining binding at 0.3 µM (PIK3CA(Q546K); [3]): 62% | remaining binding at 0.3 µM (PLK3; [3]): 94% | remaining binding at 0.3 µM (RIPK4; [3]): 76% | remaining binding at 0.3 µM (ROCK2; [3]): 84% | remaining binding at 0.3 µM (TRKB; [3]): 76%

CC#CC(=O)N1CC[C@@H](n2c(=O)n(-c3ccc(Oc4ccccc4)cc3)c3c(N)ncnc32)C1 [Tirabrutinib]
remaining binding at 0.3 µM [1, 4]: 92% | remaining binding at 0.3 µM (BIKE; [4]): 88% | remaining binding at 0.3 µM (CLK2; [4]): 94% | remaining binding at 0.3 µM (CSNK1G3; [4]): 99% | remaining binding at 0.3 µM (GRK4; [4]): 74% | remaining binding at 0.3 µM (KIT(D816V); [4]): 93% | remaining binding at 0.3 µM (PIK3CA(Q546K); [4]): 78% | remaining binding at 0.3 µM (PKN1; [4]): 99% | remaining binding at 0.3 µM (RIPK4; [4]): 70% | remaining binding at 0.3 µM (ROCK2; [4]): 90% | remaining binding at 0.3 µM (TRKB; [4]): 79%

C=CC(=O)N1CCC([C@@H]2CCNc3c(C(N)=O)c(-c4ccc(Oc5ccccc5)cc4)nn32)CC1 [Zanubrutinib]
remaining binding at 0.3 µM [1, 5]: 72% | remaining binding at 0.3 µM (CLK2; [5]): 87% | remaining binding at 0.3 µM (CSNK1G3; [5]): 90% | remaining binding at 0.3 µM (GRK4; [5]): 85% | remaining binding at 0.3 µM (KIT(D816V); [5]): 98% | remaining binding at 0.3 µM (MEK1; [5]): 4.1% | remaining binding at 0.3 µM (PIK3CA(Q546K); [5]): 100% | remaining binding at 0.3 µM (PKN1; [5]): 100% | remaining binding at 0.3 µM (PLK3; [5]): 94% | remaining binding at 0.3 µM (RIPK4; [5]): 91% | remaining binding at 0.3 µM (ROCK2; [5]): 85% | remaining binding at 0.3 µM (TRKB; [5]): 94%
